Test results published in patent US10407467B2, “Polymyxin derivatives and their use in combination therapy together with different antibiotics” (priority 2013, dated 2019).
Where two headings read alike, the source gives them in different places. Marks after values point to notes of the source that are not given here.

Assays:
[1] = system: Acinetobacter baumannii; assay: MIC, sole activity (no second agent); assay type: cell-based
In short: (§1)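 Inoculum: direct colony suspension (18-24 h MH agar), 0.5 McFarland. Medium: cation-adjusted MHB. Up to 4 strains/species; reported relative to Polymyxin B.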

[2] = system: Pseudomonas aeruginosa; assay: MIC, sole activity (no second agent); assay type: cell-based
In short: as §1

[3] = system: Escherichia coli; assay: MIC, sole activity (no second agent); assay type: cell-based
In short: as §1

[4] = system: Klebsiella pneumoniae; assay: MIC, sole activity (no second agent); assay type: cell-based
In short: as §1

[5] = system: Escherichia coli isolate ATCC25922; details: subcutaneous BID
[6] = system: Acinetobacter baumannii; assay: MIC, compound in combination with a second agent (broth microdilution); assay type: cell-based
In short: (§2)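 Compound and second agent (e.g. rifampicin) were combined 1:1 w/w, compound weighed as its TFA or sulphate salt. Inoculum was a direct colony suspension from 18-24 hour Mueller-Hinton agar at 0.5 McFarland. MIC is the total drug concentration; lower of duplicates reported, modal value when tested repeatedly.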

[7] = system: Pseudomonas aeruginosa; assay: as above; assay type: cell-based; details: for MIC P. aeruginosa ATCC 10145: total drug concentration
In short: as §2

[8] = system: Escherichia coli; assay: as above; assay type: cell-based
In short: as §2

[9] = system: Klebsiella pneumoniae; assay: as above; assay type: cell-based; details: for MIC K. pneumoniae ATCC 4352 / MIC K. pneumoniae CCUG 59349: total drug concentration
In short: as §2

[10] = Table 6A, no second agent, different supplier of Cation-adjusted MHB
[11] = 1:1 combination with Aztreonam, total drug concentration

Polymyxin B [reference compound]
MIC A. baumannii NCTC 13424 ([1]; Second Agent none (Table 7E)): 0.125 micrograms/mL | MIC A. baumannii ATCC BAA-747 [1, 10]: 0.25 micrograms/mL | MIC A. baumannii NCTC 13424 [1, 10]: 0.5 micrograms/mL | MIC A. baumannii NCTC 13424 ([1]; Table 7F, A. baumannii NCTC 13424, second agent none): 0.125 micrograms/mL | MIC A. baumannii NCTC 13424 ([1]; Table 7H, A. baumannii NCTC 13424, second agent none): 0.125 micrograms/mL | MIC A. baumannii ATCC13424 ([1]; in the absence of Rifampicin, strain ATCC13424): 1 micrograms/mL | MIC A. baumannii ATCCBAA-747 ([1]; in the absence of Rifampicin, strain ATCCBAA-747): 0.5 micrograms/mL | MIC A. baumannii CCUG57249 ([1]; in the absence of Rifampicin, strain CCUG 57249): 1 micrograms/mL | MIC A. baumannii NCTC 13423 ([1]; in the absence of Rifampicin, strain NCTC13423): 0.5 micrograms/mL | MIC P. aeruginosa ATCC 10145 ([2]; Second Agent none (Table 7E)): 0.5 micrograms/mL | MIC P. aeruginosa ATCC 27853 [2, 10]: 0.5 micrograms/mL | MIC P. aeruginosa CCUG 59347 [2, 10]: 0.5 micrograms/mL | MIC P. aeruginosa ATCC 10145 ([2]; Table 7F, P. aeruginosa ATCC 10145, second agent none): 0.5 micrograms/mL | MIC P. aeruginosa ATCC 10145 ([2]; Table 7H, P. aeruginosa ATCC 10145, second agent none): 0.5 micrograms/mL | MIC P. aeruginosa ATCC 27853 ([2]; in the absence of Rifampicin, strain ATCC27853): 0.5 micrograms/mL | MIC P. aeruginosa ATCC-47 ([2]; in the absence of Rifampicin, strain ATCC-47): 2 micrograms/mL | MIC P. aeruginosa ATCCCRM-9027 ([2]; in the absence of Rifampicin, strain ATCCCRM-9027): 0.25 micrograms/mL | MIC P. aeruginosa CCUG 59626 ([2]; in the absence of Rifampicin, strain CCUG 59626): 0.5 micrograms/mL | MIC E. coli ATCC25922 ([3]; Second Agent none (Table 7E)): 0.5 micrograms/mL | MIC E. coli NCTC 13441 ([3]; Second Agent none (Table 7E)): 1 micrograms/mL | MIC E. coli ATCC25922 [3, 10]: 0.25 micrograms/mL | MIC E. coli NCTC 13441 [3, 10]: 0.25 micrograms/mL | MIC E. coli ATCC25922 ([3]; Table 7F, E. coli ATCC25922, second agent none): 0.5 micrograms/mL | MIC E. coli NCTC 13441 ([3]; Table 7F, E. coli NCTC 13441, second agent none): 1 micrograms/mL | MIC E. coli ATCC25922 ([3]; Table 7G, E. coli ATCC25922, second agent none): 0.5 micrograms/mL | MIC E. coli ATCC25922 ([3]; Table 7H, E. coli ATCC25922, second agent none): 0.5 micrograms/mL | MIC E. coli NCTC 13441 ([3]; Table 7H, E. coli NCTC 13441, second agent none): 1 micrograms/mL | MIC E. coli ATCC25922 ([3]; Table 7I, E. coli ATCC25922, second agent none): 0.5 micrograms/mL | MIC E. coli ATCC25922 ([3]; in the absence of Rifampicin, strain ATCC25922): 1 micrograms/mL | MIC E. coli NCTC9001 ([3]; in the absence of Rifampicin, strain NCTC9001): 1 micrograms/mL | MIC K. pneumoniae CCUG 59349 ([4]; Second Agent none (Table 7E)): 0.5 micrograms/mL | MIC K. pneumoniae ATCC 4352 [4, 10]: 0.25 micrograms/mL | MIC K. pneumoniae ATCC BAA-2146 [4, 10]: 0.5 micrograms/mL | MIC K. pneumoniae CCUG 59349 ([4]; Table 7F, K. pneumoniae CCUG 59349, second agent none): 0.5 micrograms/mL | MIC K. pneumoniae CCUG 59349 ([4]; Table 7H, K. pneumoniae CCUG 59349, second agent none): 0.5 micrograms/mL | MIC K. pneumoniae ATCC 4352 ([4]; in the absence of Rifampicin, strain ATCC 4352): 1 micrograms/mL | MIC K. pneumoniae ATCC-BAA2146 ([4]; in the absence of Rifampicin, strain ATCC-BAA2146): 2 micrograms/mL | MIC K. pneumoniae CCUG-59348 ([4]; in the absence of Rifampicin, strain CCUG-59348): 16 micrograms/mL | MIC K. pneumoniae NCTC-13438 ([4]; in the absence of Rifampicin, strain NCTC-13438): 1 micrograms/mL | Mean log10 CFU reduction vs. control ([5]; Table 11, total daily dosage 3 mg/kg (sulfate salt), 24 h post-infection): 2.5 ^a log10 CFU | Mean log10 CFU reduction vs. control ([5]; Table 11, total daily dosage 10 mg/kg (sulfate salt), 24 h post-infection): 4.2 ^a log10 CFU | Mean log10 CFU reduction vs. control ([5]; Table 11A, separate study, total daily dosage 3 mg/kg (sulfate salt)): 3.75 log10 CFU | Mean log10 CFU reduction vs. control ([5]; Table 11A, separate study, total daily dosage 10 mg/kg (sulfate salt)): 4.87 log10 CFU | MIC A. baumannii ATCC BAA-747 ([6]; 1:1 (wt:wt) combination with Rifampicin, MIC = total drug concentration, strain ATCC BAA-747): 0.125 micrograms/mL | MIC A. baumannii CCUG57249 ([6]; 1:1 (wt:wt) combination with Rifampicin, MIC = total drug concentration, strain CCUG57249): 0.25 micrograms/mL | MIC A. baumannii NCTC 13423 ([6]; 1:1 (wt:wt) combination with Rifampicin, MIC = total drug concentration, strain NCTC 13423): 0.125 micrograms/mL | MIC A. baumannii NCTC 13424 ([6]; 1:1 (wt:wt) combination with Rifampicin, MIC = total drug concentration, strain NCTC 13424): 0.5 micrograms/mL | MIC A. baumannii NCTC 13424 [6, 11]: 1 micrograms/mL | MIC A. baumannii NCTC 13424 ([6]; A. baumannii NCTC 13424, 1:1 combination with Azithromycin, total drug concentration): 1 micrograms/mL | MIC A. baumannii NCTC 13424 ([6]; A. baumannii NCTC 13424, 1:1 combination with Novobiocin, total drug concentration): 0.125 micrograms/mL | MIC P. aeruginosa ATCC 27853 ([7]; 1:1 (wt:wt) combination with Rifampicin, MIC = total drug concentration, strain ATCC 27853): 0.5 micrograms/mL | MIC P. aeruginosa ATCC CRM-9027 ([7]; 1:1 (wt:wt) combination with Rifampicin, MIC = total drug concentration, strain ATCC CRM-9027): 0.25 micrograms/mL | MIC P. aeruginosa ATCC-47 ([7]; 1:1 (wt:wt) combination with Rifampicin, MIC = total drug concentration, strain ATCC-47): 0.5 micrograms/mL | MIC P. aeruginosa CCUG 59626 ([7]; 1:1 (wt:wt) combination with Rifampicin, MIC = total drug concentration, strain CCUG 59626): 0.5 micrograms/mL | MIC P. aeruginosa ATCC 10145 ([7]; 1:1 combination with Aztreonam): 1 micrograms/mL | MIC P. aeruginosa ATCC 10145 ([7]; P. aeruginosa ATCC 10145, 1:1 combination with Azithromycin): 1 micrograms/mL | MIC P. aeruginosa ATCC 10145 ([7]; P. aeruginosa ATCC 10145, 1:1 combination with Novobiocin): 1 micrograms/mL | MIC E. coli ATCC25922 ([8]; 1:1 (wt:wt) combination with Rifampicin, MIC = total drug concentration, strain ATCC25922): 0.25 micrograms/mL | MIC E. coli NCTC9001 ([8]; 1:1 (wt:wt) combination with Rifampicin, MIC = total drug concentration, strain NCTC9001): 0.5 micrograms/mL | MIC E. coli ATCC25922 [8, 11]: 0.125 micrograms/mL | MIC E. coli NCTC 13441 [8, 11]: 1 micrograms/mL | MIC E. coli ATCC25922 ([8]; E. coli ATCC25922, 1:1 combination with Azithromycin, total drug concentration): 0.25 micrograms/mL | MIC E. coli ATCC25922 ([8]; E. coli ATCC25922, 1:1 combination with Fusidic acid, total drug concentration): 2 micrograms/mL | MIC E. coli ATCC25922 ([8]; E. coli ATCC25922, 1:1 combination with Novobiocin, total drug concentration): 0.5 micrograms/mL | MIC E. coli ATCC25922 ([8]; E. coli ATCC25922, 1:1 combination with Oxacillin, total drug concentration): 2 micrograms/mL | MIC E. coli NCTC 13441 ([8]; E. coli NCTC 13441, 1:1 combination with Azithromycin, total drug concentration): 1 micrograms/mL | MIC E. coli NCTC 13441 ([8]; E. coli NCTC 13441, 1:1 combination with Novobiocin, total drug concentration): 1 micrograms/mL | MIC K. pneumoniae ATCC-BAA-2146 ([9]; 1:1 (wt:wt) combination with Rifampicin, MIC = total drug concentration, strain ATCC-BAA-2146): 1 micrograms/mL | MIC K. pneumoniae CCUG-59348 ([9]; 1:1 (wt:wt) combination with Rifampicin, MIC = total drug concentration, strain CCUG-59348): 1 micrograms/mL | MIC K. pneumoniae NCTC 13438 ([9]; 1:1 (wt:wt) combination with Rifampicin, MIC = total drug concentration, strain NCTC 13438): 1 micrograms/mL | MIC K. pneumoniae ATCC 4352 ([9]; 1:1 combination with Aztreonam): ≤0.06 micrograms/mL | MIC K. pneumoniae CCUG 59349 ([9]; 1:1 combination with Aztreonam): 2 micrograms/mL | MIC K. pneumoniae ATCC 4352 ([9]; K. pneumoniae ATCC4352, 1:1 combination with Azithromycin): 0.25 micrograms/mL | MIC K. pneumoniae ATCC 4352 ([9]; K. pneumoniae ATCC4352, 1:1 combination with Fusidic acid): 1 micrograms/mL | MIC K. pneumoniae ATCC 4352 ([9]; K. pneumoniae ATCC4352, 1:1 combination with Novobiocin): 0.25 micrograms/mL | MIC K. pneumoniae ATCC 4352 ([9]; K. pneumoniae ATCC4352, 1:1 combination with Oxacillin): 4 micrograms/mL | MIC K. pneumoniae CCUG 59349 ([9]; K. pneumoniae CCUG 59349, 1:1 combination with Azithromycin): 2 micrograms/mL | MIC K. pneumoniae CCUG 59349 ([9]; K. pneumoniae CCUG 59349, 1:1 combination with Novobiocin): 1 micrograms/mL
